Where two headings read alike, the source gives them in different places.
Key:
[1] = pKa of drug substance; format: physicochemical; details: mono-hydrochloride salt form
[2] = logD of drug substance; format: physicochemical; details: mono-hydrochloride salt form
[3] = Phase 2/3 trial BHV3500-201 (Study 201), safety, adverse events and liver function tests; format: in vivo, human
Source text: The majority (>80%) of AEs were mild in intensity.

[4] = Phase 1 multiple ascending dose (MAD) study, intranasal, pharmacokinetics; set-up: species or system human; details: in vivo
Protocol: A Phase 1, single-center, randomized, double-blind, placebo-controlled, sequential multiple ascending dose (MAD) study with 2 alternate dosing arms was conducted. […] The MAD portion of the study consists of 4 cohorts, with a maximum dose of 20 mg administered once daily for up to 14 days in 3 cohorts, and 20 mg administered twice daily for up to 8 days in the fourth cohort.
In addition to the 4 MAD cohorts, there were 2 alternate dosing cohorts, each consisting of 1 day dosing. The first alternate dosing cohort assessed the effect of 2 sequential administrations of 20 mg (20 mg spray [100 μL of 200 mg/mL] in alternate nostrils); with a 30 minute interval between administrations. A 2nd alternate dosing cohort assessed the effect of 2 sequential administrations of 20 mg (20 mg spray [100 μL of 200 mg/mL] in alternate nostrils); with a nose blow and 5 minute interval between administrations.
The PK data were collected from subjects in Cohorts 1 to 4.

[5] = pH-solubility profile of drug substance; format: physicochemical; details: pH = 8.2; mono-hydrochloride salt form
[6] = human, inhaled or intranasal, 5 mg
[7] = human, inhaled or intranasal, 10 mg
[8] = human, inhaled or intranasal, 20 mg

Cc1cc(C[C@@H](NC(=O)N2CCC(c3cc4ccccc4[nH]c3=O)CC2)C(=O)N2CCN(C3CCN(C)CC3)CC2)cc2cn[nH]c12 [Zavegepant, (R)—N-(3-(7-methyl-1H-indazol-5-yl)-1-(4-(1-methylpiperidin-4-yl)piperazin-1-yl)-1-oxopropan-2-yl)-4-(2-oxo-1,2-dihydroquinolin-3-yl)piperidine-1-carboxamide]
pKa [1]: 4.8 | logD [2]: 1.21 | ALT or AST > 3 × ULN (subjects) ([3]; 5 mg (N = 388)): 0 | Bilirubin > 2 × ULN (subjects) ([3]; 5 mg (N = 388)): 0 | ALT or AST > 3 × ULN (subjects) ([3]; 10 mg (N = 394)): 0 | Bilirubin > 2 × ULN (subjects) ([3]; 10 mg (N = 394)): 0 | ALT or AST > 3 × ULN (subjects) ([3]; 20 mg (N = 403)): 0 | Bilirubin > 2 × ULN (subjects) ([3]; 20 mg (N = 403)): 0 | ALT or AST > 3 × ULN (subjects) ([3]; All zavegepant (N = 1185)): 0 | Bilirubin > 2 × ULN (subjects) ([3]; All zavegepant (N = 1185)): 0 | hepatotoxicity signal (AST or ALT >3xULN, total bilirubin >2xULN) ([3]; any treatment arm): no signal of hepatoxicity | tolerability and safety ([3]; intranasal, single dose trial): well tolerated and safe | AEs mild in intensity ([3]; single dose trial): > 80% | half-life ([4]; human, 20 mg): 3.69 to 4.93 h | Tmax ([4]; human, Tmax): ~30 min | AUC [4, 6]: 20.7 ng·h/mL | AUC0-24 (ng*h/mL) geometric mean [4, 6]: 24.95 ng·h/mL | AUC0-τ ss (ng*h/mL) geometric mean [4, 6]: 20.66 ng·h/mL | AUC(0-inf) [4, 6]: 22.4 ng·h/mL | Cl/F (L/h) Mean [4, 6]: 293.27 L/h | Tmax (h) Mean [4, 6]: 0.52 h | Vd/F [4, 6]: 1570 L | half-life [4, 6]: 3.69 h | AUC(0-t) ([4]; human, inhaled or intranasal, 5 mg, AUC0-24 (ng*h/mL) geometric mean): 24.9 ng·h/mL | AUC(0-t) ([4]; human, inhaled or intranasal, 5 mg, AUC0-t (ng*h/mL) geometric mean): 19 ng·h/mL | Tmax ([4]; human, inhaled or intranasal, 5 mg, Tmax (h) Mean): 31.2 min | AUC [4, 7]: 32.9 ng·h/mL | AUC0-24 (ng*h/mL) geometric mean [4, 7]: 29.61 ng·h/mL | AUC0-τ ss (ng*h/mL) geometric mean [4, 7]: 32.85 ng·h/mL | AUC(0-inf) [4, 7]: 33.9 ng·h/mL | Cl/F (L/h) Mean [4, 7]: 341.09 L/h | Tmax (h) Mean [4, 7]: 0.57 h | Vd/F [4, 7]: 1660 L | half-life [4, 7]: 3.84 h | AUC(0-t) ([4]; human, inhaled or intranasal, 10 mg, AUC0-24 (ng*h/mL) geometric mean): 29.6 ng·h/mL | AUC(0-t) ([4]; human, inhaled or intranasal, 10 mg, AUC0-t (ng*h/mL) geometric mean): 30.9 ng·h/mL | Tmax ([4]; human, inhaled or intranasal, 10 mg, Tmax (h) Mean): 26.4 min | AUC [4, 8]: 91 ng·h/mL | AUC0-24 (ng*h/mL) geometric mean [4, 8]: 80.09 ng·h/mL | AUC0-τ ss (ng*h/mL) geometric mean [4, 8]: 90.98 ng·h/mL | AUC(0-inf) [4, 8]: 92.4 ng·h/mL | Cl/F (L/h) Mean [4, 8]: 254.40 L/h | Tmax (h) Mean [4, 8]: 0.56 h | Vd/F [4, 8]: 1740 L | AUC(0-t) ([4]; human, inhaled or intranasal, 20 mg, AUC0-24 (ng*h/mL) geometric mean): 80.1 ng·h/mL | AUC(0-t) ([4]; human, inhaled or intranasal, 20 mg, AUC0-t (ng*h/mL) geometric mean): 87.9 ng·h/mL | Cmax ([4]; human, inhaled or intranasal, 20 mg, Cmax (ng/mL) geometric mean): 34.7 ng/mL | Tmax ([4]; human, inhaled or intranasal, 20 mg, Tmax (h) Mean): 34.2 min | half-life ([4]; human, inhaled or intranasal, 20 mg once daily intranasal (Cohort 3), Day 14, read-out: T1/2 el (h) Mean (converted)): 4.93 h | concentration at 0.5 h ([4]; human, 5 mg, Day 14, nominal time 0.500 h, read-out: Plasma Concentrations (ng/mL) Mean): 8.08 ng/mL | urine concentrations [4]: below the limit of quantitation | pH-solubility profile [5]: 105 mg/mL at pH = 8.2
